Source: patent US12180207B2 (ARRAY BIOPHARMA INC., priority 2018, dated 2024)

Legend:
[1] = target: T1, HEK-293 cells transfected with dox-inducible human wild type FGFR3 (Homo sapiens (Human), UniProt P22607); assay: FGFR3 pFGFR cell assay (ELISA); type: cell-based; conditions: HEK-293 dox-inducible FGFR3, 1 hour compound, 100 ng/ml FGF-acidic
How it was run: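 Doxycycline-induced (1 μg/ml) HEK-293 cells expressing wild-type human FGFR3, treated 1 h with compound (1:3 series, top final 5 μM), then stimulated 5 min with 100 ng/ml FGF-acidic. Phospho-FGFR3 measured by ELISA (total FGFR3 capture, phosphotyrosine detection, OD 450 nm); IC50 from 4-parameter fit of POC values.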

[2] = target: recombinant human FGFR2 cytoplasmic domain (amino acids 403-822) (Homo sapiens (Human), UniProt P21802); assay: FGFR2 enzyme activity assay (LanthaScreen TR-FRET); type: biochemical; conditions: 15 μM ATP, 20 min incubation at 22° C., average of multiple determinations if made, read-out: FGFR2 Enz FRET IC50
How it was run: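 His-tagged FGFR2 cytoplasmic domain ([…]) with 100 nM Alexa Fluor 647-poly-GT peptide and 15 μM ATP in HEPES/MgCl2/Triton buffer, pH 7.5, 2% DMSO, 20 min at 22 °C. EDTA-quenched, Eu-PY20 antibody added, TR-FRET read after 60 min.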

[3] = target: T1, HEK-293 cells transfected with dox-inducible human wild type FGFR3; assay: FGFR3 pERK cell assay; type: cell-based; conditions: HEK-293 dox-inducible FGFR3, 1 hour compound, 100 ng/ml FGF-acidic; maximum concentration 5 μM
How it was run: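 Doxycycline-induced cells preincubated 1 h at 37 °C with compound (1:3 dilutions, top 5 μM final), then stimulated 5 min with 100 ng/ml FGF-acidic. Lysate phospho-ERK1/2 measured by MSD sandwich assay; IC50 at 50 POC from 4-parameter fit, normalised to no-compound and control-compound wells.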

[4] = target: HEK-293 cells transfected with dox-inducible human wild type FGFR1 (Homo sapiens (Human), UniProt P11362); assay: FGFR1 pERK cell assay; type: cell-based; conditions: HEK-293 dox-inducible FGFR1, 1 hour compound, 100 ng/ml FGF-acidic; maximum concentration 5 μM
How it was run: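 In HEK-293 cells with dox-induced human wild-type FGFR1, compounds (1:3 dilutions, top 5 μM final) were applied 1 h at 37°C before 5 min stimulation with 100 ng/ml FGF-acidic. Phospho-ERK1/2 measured by MSD sandwich immunoassay; IC50 from 4-parameter fit of POC versus vehicle and control compound.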

Sequence of recombinant human FGFR2 cytoplasmic domain (amino acids 403-822) (P21802 402-821): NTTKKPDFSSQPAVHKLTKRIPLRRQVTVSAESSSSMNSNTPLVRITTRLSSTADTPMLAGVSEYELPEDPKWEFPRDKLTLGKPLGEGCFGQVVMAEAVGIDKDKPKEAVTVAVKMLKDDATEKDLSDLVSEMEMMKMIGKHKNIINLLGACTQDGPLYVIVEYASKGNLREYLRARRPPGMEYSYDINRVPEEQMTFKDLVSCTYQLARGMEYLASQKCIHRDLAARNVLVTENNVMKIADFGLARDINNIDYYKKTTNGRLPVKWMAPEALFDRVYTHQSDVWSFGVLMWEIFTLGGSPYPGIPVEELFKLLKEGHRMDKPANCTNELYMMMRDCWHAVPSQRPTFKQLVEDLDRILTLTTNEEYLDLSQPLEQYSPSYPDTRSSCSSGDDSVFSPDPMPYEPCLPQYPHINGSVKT
T1 sequence (P22607 23-806): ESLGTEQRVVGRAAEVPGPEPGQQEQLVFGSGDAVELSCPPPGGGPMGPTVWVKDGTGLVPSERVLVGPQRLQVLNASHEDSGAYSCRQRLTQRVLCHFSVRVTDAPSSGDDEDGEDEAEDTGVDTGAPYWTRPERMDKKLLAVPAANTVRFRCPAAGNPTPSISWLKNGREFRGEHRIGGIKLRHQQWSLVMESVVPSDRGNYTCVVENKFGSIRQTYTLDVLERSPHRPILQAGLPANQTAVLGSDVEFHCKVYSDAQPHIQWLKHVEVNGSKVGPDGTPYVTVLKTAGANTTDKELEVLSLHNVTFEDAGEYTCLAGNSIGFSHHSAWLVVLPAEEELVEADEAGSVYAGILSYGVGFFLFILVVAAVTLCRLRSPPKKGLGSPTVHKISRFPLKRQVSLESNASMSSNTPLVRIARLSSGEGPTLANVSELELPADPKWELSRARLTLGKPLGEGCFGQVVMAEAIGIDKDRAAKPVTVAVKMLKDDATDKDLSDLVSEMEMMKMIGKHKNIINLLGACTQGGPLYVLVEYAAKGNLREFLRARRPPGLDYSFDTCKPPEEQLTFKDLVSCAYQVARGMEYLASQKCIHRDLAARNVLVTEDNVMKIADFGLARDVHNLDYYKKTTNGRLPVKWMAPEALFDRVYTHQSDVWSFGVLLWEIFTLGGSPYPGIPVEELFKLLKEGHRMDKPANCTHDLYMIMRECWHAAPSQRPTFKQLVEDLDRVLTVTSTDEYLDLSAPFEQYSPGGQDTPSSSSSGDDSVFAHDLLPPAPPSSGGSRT
Sequence of HEK-293 cells transfected with dox-inducible human wild type FGFR1 (P11362 22-822): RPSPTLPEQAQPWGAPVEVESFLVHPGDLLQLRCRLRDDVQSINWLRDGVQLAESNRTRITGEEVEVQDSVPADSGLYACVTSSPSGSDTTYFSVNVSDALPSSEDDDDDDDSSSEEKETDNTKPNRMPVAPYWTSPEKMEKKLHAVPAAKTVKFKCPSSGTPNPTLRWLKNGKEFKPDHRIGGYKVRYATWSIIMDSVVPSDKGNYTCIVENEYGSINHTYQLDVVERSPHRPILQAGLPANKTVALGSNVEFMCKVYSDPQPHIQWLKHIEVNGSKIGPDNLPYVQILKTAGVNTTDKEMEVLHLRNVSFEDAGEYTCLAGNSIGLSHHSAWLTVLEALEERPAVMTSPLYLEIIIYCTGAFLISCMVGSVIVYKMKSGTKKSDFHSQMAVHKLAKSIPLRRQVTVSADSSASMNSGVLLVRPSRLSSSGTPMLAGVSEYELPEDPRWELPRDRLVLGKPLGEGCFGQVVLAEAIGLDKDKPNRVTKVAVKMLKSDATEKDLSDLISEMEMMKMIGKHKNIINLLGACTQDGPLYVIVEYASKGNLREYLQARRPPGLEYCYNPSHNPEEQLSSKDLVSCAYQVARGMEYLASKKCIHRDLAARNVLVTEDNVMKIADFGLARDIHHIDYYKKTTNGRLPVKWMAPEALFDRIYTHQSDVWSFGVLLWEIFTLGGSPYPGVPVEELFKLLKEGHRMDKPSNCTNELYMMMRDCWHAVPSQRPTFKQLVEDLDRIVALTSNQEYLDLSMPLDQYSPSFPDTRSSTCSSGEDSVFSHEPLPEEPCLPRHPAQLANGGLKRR

Row | Compound | IC50 [1] [µM] | IC50 [2] [µM] | IC50 [3] [µM] | IC50 [4] [µM]
1 | C=CC(=O)N1CCC(C#N)(C(=O)N2CCC(n3cc(-c4cc(OC)c5c(C#N)cnn5c4)cn3)CC2)CC1 [Example 14, 6-(1-(1-(1-acryloyl-4-cyanopiperidine-4-carbonyl)piperidin-4-yl)-1H-pyrazol-4-yl)-4-methoxypyrazolo[1,5-a]pyridine-3-carbonitrile] | 0.025 | 0.003 | – | –
2 | C=CC(=O)N1CCC(C(=O)N2CCC(n3cc(-c4cc(OC)c5c(C#N)cnn5c4)cn3)CC2)C(F)(F)C1 (stereo not drawn) [Example 15, 6-(1-(1-(1-acryloyl-3,3-difluoropiperidine-4-carbonyl)piperidin-4-yl)-1H-pyrazol-4-yl)-4-methoxypyrazolo[1,5-a]pyridine-3-carbonitrile] | 0.01 | 0.002 | – | –
3 | C=CC(=O)N1CC2(CCC(C(=O)N3CCC(n4cc(-c5cc(OC)c6c(C#N)cnn6c5)cn4)CC3)CC2)C1 [Example 21, 6-(1-(1-(2-acryloyl-2-azaspiro[3.5]nonane-7-carbonyl)piperidin-4-yl)-1H-pyrazol-4-yl)-4-methoxypyrazolo[1,5-a]pyridine-3-carbonitrile] | 0.04 | 0.003 | – | –
4 | C=CC(=O)Nc1cccc(C(=O)N2CCC(n3cc(-c4cc(OC)c5c(C#N)cnn5c4)cn3)CC2)c1 [Example 22, N-(3-(4-(4-(3-cyano-4-methoxypyrazolo[1,5-a]pyridin-6-yl)-1H-pyrazol-1-yl)piperidine-1-carbonyl)phenyl)acrylamide] | 0.087 | 0.005 | – | –
5 | C=CC(=O)Nc1ccc(C(=O)N2CCC[C@@H](n3cc(-c4cc(OC)c5c(C#N)cnn5c4)cn3)C2)cc1 [Example 23, (R)-N-(4-(3-(4-(3-cyano-4-methoxypyrazolo[1,5-a]pyridin-6-yl)-1H-pyrazol-1-yl)piperidine-1-carbonyl)phenyl)acrylamide] | 0.09 | 0.012 | – | –
6 | C=CC(=O)Nc1cccc(C(=O)N2CCC[C@@H](n3cc(-c4cc(OC)c5c(C#N)cnn5c4)cn3)C2)c1 [Example 24, (R)-N-(3-(3-(4-(3-cyano-4-methoxypyrazolo[1,5-a]pyridin-6-yl)-1H-pyrazol-1-yl)piperidine-1-carbonyl)phenyl)acrylamide] | 0.435 | 0.023 | – | –
7 | C=CC(=O)Nc1ccccc1C(=O)N1CCC[C@@H](n2cc(-c3cc(OC)c4c(C#N)cnn4c3)cn2)C1 [Example 25, (R)-N-(2-(3-(4-(3-cyano-4-methoxypyrazolo[1,5-a]pyridin-6-yl)-1H-pyrazol-1-yl)piperidine-1-carbonyl)phenyl)acrylamide] | 0.083 | 0.018 | – | –
8 | C=CC(=O)N1CC[C@H](C(=O)N2CCC(n3cc(-c4cc(OC)c5c(C#N)cnn5c4)cn3)CC2)C1 [Example 28, (S)-6-(1-(1-(1-acryloylpyrrolidine-3-carbonyl)piperidin-4-yl)-1H-pyrazol-4-yl)-4-methoxypyrazolo[1,5-a]pyridine-3-carbonitrile] | 0.285 | 0.005 | – | –
9 | C=CC(=O)N1CC[C@@H](C(=O)N2CCC(n3cc(-c4cc(OC)c5c(C#N)cnn5c4)cn3)CC2)C1 [Example 29, (R)-6-(1-(1-(1-acryloylpyrrolidine-3-carbonyl)piperidin-4-yl)-1H-pyrazol-4-yl)-4-methoxypyrazolo[1,5-a]pyridine-3-carbonitrile] | 0.359 | 0.008 | – | –
10 | C=CC(=O)N1CC(CN2CC(n3ncc(-c4cc(OC)c5c(C#N)cnn5c4)c3C)C2)C1 [Example 92] | – | 0.131 | 0.205 | 2.53
11 | C=CC(=O)N1CC(C)(CN2CC(n3ncc(-c4cc(OC)c5c(C#N)cnn5c4)c3C)C2)C1 [Example 93, 6-(1-(1-((1-acryloyl-3-methylazetidin-3-yl)methyl)azetidin-3-yl)-5-methyl-1H-pyrazol-4-yl)-4-methoxypyrazolo[1,5-a]pyridine-3-carbonitrile] | – | 0.127 | 0.174 | 1.91
